Measured values from US3995061A, “Pharmaceutical composition and method of using the same” (Chugai Seiyaku Kabushiki Kaisha, priority 1974, dated 1976).

Columns and labels:
Acute toxicity, rabbit = assay: Acute toxicity, rabbit; design: species or system Japanese native male rabbits; details: in vivo, male, oral
Excerpt: (§1) Acute toxicity of the ascochlorin derivatives was observed by the use of Wister-Imamichi strain male rats weighing 230 ± 30 g and ddY strain male and female mice (5 weeks old) weighing 20 ±3 g which were divided into groups of 10 members each. Japanese native male rabbits weighing 2 kg ± 300 g which were divided into groups of five members each were also used. The test animals were orally or intraperitoneally administered with a different ascochlorin derivative as a suspension in 5% gum arabic aqueous solution, and the toxicity was compared with that of control in which ascochlorin was used.

Acute toxicity, mouse = details: in vivo
Excerpt: as §1

Serum Lipid = assay: Hypolipidemic activity: change in level of serum lipid, 30 days, high-fat feed; format: in vivo, Wister strain rats; details: rat; for Serum Cholesterol / Serum Free fatty acid / Serum Phospholipid / Serum Triglyceride / Serum β-Lipoprotein: average ± standard error
blood platelet = assay: Aggregation inhibition activity of blood platelet (ADP-induced, platelet rich plasma of orally dosed rats); format: in vivo, Wister-Imamich strain male rats; details: rat, 20 mg/kg oral, 6 hours; adenosine-5'-diphosphate 10^-5 M in platelet rich plasma
Method: In this Example Wister-Imamich strain male rats weighing 230 ± 30 g which had been bred with the use of a commercial chow, CLEA CE-2 were used.
The rats were divided into groups of five members each, and orally administered with a different ascochlorin derivative as a suspension in 2% gum arabic aqueous solution in a dose of 20 mg/kg.body weight. Six hours after the administration, the blood of each rat was sampled from the heart and after the addition of citric acid, the blood sample was centrifuged at 1,500 r.p.m. for 10 minutes to obtain platelet rich plasma. The anti-aggregation effect when the concentration of adenosine-5'-diphosphatein the platelet rich plasma is ultimately 10^^-5 M is shown in Table II.
As positive controls, ascochlorin, ethyl-α-(p-chlorophenoxy) isobutylate and acetyl salicyclic acid were used. The aggregation inhibition ratio was evaluated in percent by comparing the increase of transmission rate caused by the addition of adenosin-5'-diphosphate to platelet rich plasma of the control group (no medication) with that caused on the groups administered with an ascochlorin derivative which is calculated for 100.

arteriosclerosis = assay: Treatment of arteriosclerosis in human beings, oral administration; format: in vivo; details: 50 mg dose after every meal, study not completed
Excerpt: In order to treat arteriosclerosis by the use of the composition prepared according to the present invention, mammals and poultry are orally administered with the pharmaceutical composition prepared according to the present invention once or more a day. Especially, for human beings, it is preferable to administer the composition three times per day, after every meal. For animals other than human beings, the composition may be administered alone or by mixing it with feed. As stated above, the dose of the composition depends on the kind of animals to which it is to be administered and on the form of the composition. However, the dose ranges generally 0.05-500, preferably 0.5-50 mg/kg.body weight per day based on the ascochlorin derivative.

Acute toxicity, rat = details: in vivo, male
Excerpt: as §1

Cholesterol in serum = assay: Serum cholesterol lowering activity in rats on high-fat feed, single oral dose; format: in vivo, Wister-Imamich strain male rats; details: rat, 75 mg/kg oral, 6 hours after administration
Excerpt: The cholesterol lowering activity of the ascochlorin derivatives of this invention was observed by the use of Wister-Imamich strain male rats weighing 230 ± 30 g which had been bred with the use of high-fat feed comprising 1000 g of powdery chow CLEA CE-2 (sold by NIHON CLEA KABUSHIKI KAISHA) admixed with 10 g of cholesterol, 95 g of hydrogenated coconut oil, 2 g of cholic acid, 150 g of milk casein and 671 g of sucrose.
The rats were divided into groups of five members each, and orally administered with a different ascochlorin derivative as a suspension in gum arabic aqueous solution in a dose of 75 mg/kg.body weight. The rats were kept from eating food, and 6 hours after the administration, the blood of each rat was sampled from its heart. The total amount of cholesterol in serum was determined by a modified Zurkowski method (Clinical Chemistry, 10, 451, 1964) with the use of a colorimeter for blood analysis (sold by KYOTO DAIICHI KAGAKU).

Lipid in liver and aorta = assay: Hypolipidemic activity: change of lipid level in organs and aorta abdominalis, 30 days, high-fat feed; format: in vivo, Wister strain rats; design: Cholesterol in Tunica intima of aorta abdominalis: unit not given here; details: rat; for Cholesterol in Liver / Cholesterol in Tunica intima of aorta abdominalis / Phospholipid in Liver / Triglyceride in Liver: average ± standard error
Method: Wister strain rats weighing 150 ± 20 g were divided into groups of 10 members each and bred with high-fat feed, the same as that used in Example 1. The rats were orally administered ascochlorin, 4-O-methylascochlorin or ethyl-α-(p-chlorophenoxy) isobutylate in a predetermined dose every morning for 30 days. Six hours after the last administration, liver and aorta of each rat were taken out and lipid level in the organs of each of the rats were determined. Lipid present in the liver and aorta was extracted with methanol-chloroform (1:1) by allowing it to stand overnight and the extract was assayed as to lipid level.

## COc1c(Cl)c(C)c(C=O)c(O)c1C/C=C(C)/C=C/C1(C)C(C)CCC(=O)C1C (stereo not drawn) [4-O-methylascochlorin]
Acute toxicity, rabbit
  LD50: > 2000 mg/kg
Acute toxicity, mouse; ip, female
  LD50: 5500 mg/kg
Acute toxicity, mouse; ip, male
  LD50: 5000 mg/kg
Acute toxicity, mouse; po, female
  LD50: > 7300 mg/kg
Acute toxicity, mouse; po, male
  LD50: > 7300 mg/kg
Serum Lipid; 2.25 mg/kg oral
  Serum Cholesterol, increasing or reducing ratio based on the control: -4.2
  Serum Free fatty acid, increasing or reducing ratio based on the control: -2.4
  Serum Phospholipid, increasing or reducing ratio based on the control: -12.2
  Serum Triglyceride, increasing or reducing ratio based on the control: -6.8
  Serum β-Lipoprotein, increasing or reducing ratio based on the control: +7.3
  Serum Cholesterol: 102.4 ± 13.8 mg/dL
  Serum Free fatty acid: 49.1±8.2 μ eq./dl
  Serum Phospholipid: 119.7 ± 12.5 mg/dL
  Serum Triglyceride: 74.5 ± 9.8 mg/dL
  Serum β-Lipoprotein: 819 ± 109 mg/dL
Serum Lipid; 9 mg/kg or more, oral
  levels of all types of lipids: extremely lowered
Serum Lipid; 9.0 mg/kg oral
  Serum Cholesterol, increasing or reducing ratio based on the control: -18.6
  Serum Free fatty acid, increasing or reducing ratio based on the control: -10.4
  Serum Phospholipid, increasing or reducing ratio based on the control: -13.2
  Serum Triglyceride, increasing or reducing ratio based on the control: -19.0
  Serum β-Lipoprotein, increasing or reducing ratio based on the control: -22.3
  Serum Cholesterol: 87.0 ± 4.9 mg/dL
  Serum Free fatty acid: 44.8±3.5 μ eq./dl
  Serum Phospholipid: 118.4 ± 5.8 mg/dL
  Serum Triglyceride: 64.8 ± 5.2 mg/dL
  Serum β-Lipoprotein: 593 ± 85 mg/dL
Serum Lipid; 22.5 mg/kg oral
  Serum Cholesterol, increasing or reducing ratio based on the control: -16.9
  Serum Free fatty acid, increasing or reducing ratio based on the control: -16.3
  Serum Phospholipid, increasing or reducing ratio based on the control: -13.5
  Serum Triglyceride, increasing or reducing ratio based on the control: -20.5
  Serum β-Lipoprotein, increasing or reducing ratio based on the control: -22.8
  Serum Cholesterol: 88.8 ± 9.1 mg/dL
  Serum Free fatty acid: 42.1±2.7 μ eq./dl
  Serum Phospholipid: 117.9 ± 6.5 mg/dL
  Serum Triglyceride: 63.6 ± 4.6 mg/dL
  Serum β-Lipoprotein: 589 ± 133 mg/dL
Blood platelet
  Aggregation Inhibition Ratio: 70.5%
arteriosclerosis
  effect in human beings: satisfactory effect
Acute toxicity, rat; ip
  LD50: 3100 mg/kg
Acute toxicity, rat; oral
  LD50: > 10000 mg/kg
Cholesterol in serum
  Cholesterol in serum: 76.6 mg/dL
Lipid in liver and aorta; 2.25 mg/kg oral
  Cholesterol in Liver, increasing or reducing ratio based on the control: +12.9
  Cholesterol in Tunica intima of aorta abdominalis, increasing or reducing ratio based on the control: -8.1
  Phospholipid in Liver, increasing or reducing ratio based on the control: +2.6
  Triglyceride in Liver, increasing or reducing ratio based on the control: -23.6
  Cholesterol in Liver: 38.4 ± 6.4 mg/g
  Cholesterol in Tunica intima of aorta abdominalis: 18.2±1.4
  Phospholipid in Liver: 72.0 ± 5.3 mg/g
  Triglyceride in Liver: 16.7 ± 1.3 mg/g
Lipid in liver and aorta; 9 mg/kg or more, oral
  amount of lipids in liver and cholesterol in aorta: remarkably reduced
Lipid in liver and aorta; 9.0 mg/kg oral
  Cholesterol in Liver, increasing or reducing ratio based on the control: -15.0
  Cholesterol in Tunica intima of aorta abdominalis, increasing or reducing ratio based on the control: -29.3
  Phospholipid in Liver, increasing or reducing ratio based on the control: -1.6
  Triglyceride in Liver, increasing or reducing ratio based on the control: -21.1
  Cholesterol in Liver: 28.9 ± 3.6 mg/g
  Cholesterol in Tunica intima of aorta abdominalis: 14.0±0.3
  Phospholipid in Liver: 69.1 ± 9.9 mg/g
  Triglyceride in Liver: 17.2 ± 2.8 mg/g
Lipid in liver and aorta; 22.5 mg/kg oral
  Cholesterol in Liver, increasing or reducing ratio based on the control: -21.8
  Cholesterol in Tunica intima of aorta abdominalis, increasing or reducing ratio based on the control: -32.8
  Phospholipid in Liver, increasing or reducing ratio based on the control: -12.0
  Triglyceride in Liver, increasing or reducing ratio based on the control: -22.1
  Cholesterol in Liver: 26.6 ± 2.2 mg/g
  Cholesterol in Tunica intima of aorta abdominalis: 13.3±0.4
  Phospholipid in Liver: 61.8 ± 4.3 mg/g
  Triglyceride in Liver: 17.0 ± 0.7 mg/g
